{"source": "patent US3995061A", "about": "“Pharmaceutical composition and method of using the same” (Chugai Seiyaku Kabushiki Kaisha, priority 1974, dated 1976)", "key": {"[1]": {"assay": "Acute toxicity, rat", "settings": "in vivo, male", "source_text": "(§1) Acute toxicity of the ascochlorin derivatives was observed by the use of Wister-Imamichi strain male rats weighing 230 ± 30 g and ddY strain male and female mice (5 weeks old) weighing 20 ±3 g which were divided into groups of 10 members each. Japanese native male rabbits weighing 2 kg ± 300 g which were divided into groups of five members each were also used. The test animals were orally or intraperitoneally administered with a different ascochlorin derivative as a suspension in 5% gum arabic aqueous solution, and the toxicity was compared with that of control in which ascochlorin was used."}, "[2]": {"assay": "Acute toxicity, mouse", "settings": "in vivo", "source_text": "as §1"}, "[3]": {"settings": "ascochlorin, background statement; cited from earlier work"}, "[4]": {"system": "Lipid in liver and aorta", "assay": "Hypolipidemic activity: change of lipid level in organs and aorta abdominalis, 30 days, high-fat feed", "assay_type": "in vivo, Wister strain rats", "settings": "rat, 10.0 mg/kg oral", "protocol": "Wister strain rats weighing 150 ± 20 g were divided into groups of 10 members each and bred with high-fat feed, the same as that used in Example 1. The rats were orally administered ascochlorin, 4-O-methylascochlorin or ethyl-α-(p-chlorophenoxy) isobutylate in a predetermined dose every morning for 30 days. Six hours after the last administration, liver and aorta of each rat were taken out and lipid level in the organs of each of the rats were determined. Lipid present in the liver and aorta was extracted with methanol-chloroform (1:1) by allowing it to stand overnight and the extract was assayed as to lipid level."}, "[5]": {"system": "blood platelet", "assay": "Aggregation inhibition activity of blood platelet (ADP-induced, platelet rich plasma of orally dosed rats)", "assay_type": "in vivo, Wister-Imamich strain male rats", "settings": "rat, 20 mg/kg oral, 6 hours; adenosine-5'-diphosphate 10^-5 M in platelet rich plasma", "protocol": "In this Example Wister-Imamich strain male rats weighing 230 ± 30 g which had been bred with the use of a commercial chow, CLEA CE-2 were used.\nThe rats were divided into groups of five members each, and orally administered with a different ascochlorin derivative as a suspension in 2% gum arabic aqueous solution in a dose of 20 mg/kg.body weight. Six hours after the administration, the blood of each rat was sampled from the heart and after the addition of citric acid, the blood sample was centrifuged at 1,500 r.p.m. for 10 minutes to obtain platelet rich plasma. The anti-aggregation effect when the concentration of adenosine-5'-diphosphatein the platelet rich plasma is ultimately 10^^-5 M is shown in Table II.\nAs positive controls, ascochlorin, ethyl-α-(p-chlorophenoxy) isobutylate and acetyl salicyclic acid were used. The aggregation inhibition ratio was evaluated in percent by comparing the increase of transmission rate caused by the addition of adenosin-5'-diphosphate to platelet rich plasma of the control group (no medication) with that caused on the groups administered with an ascochlorin derivative which is calculated for 100."}, "[6]": {"assay": "Toxicity by continuous administration for 10 days (body weight)", "assay_type": "in vivo, Wister-Imamichi strain male rats", "settings": "rat, 10 mg/head oral once a day", "protocol": "Wister-Imamichi strain male rats weighing 230 ± 30 g were divided into four groups of 10 members each, 3 groups of which were orally administered with 4-O-methylascochlorin in a dose of 10 mg/head, 4-O-methylascochlorin in 20 mg/head and ascochlorin in 10 mg/head, respectively, as a suspension in 2% gum arabic aqueous solution once a day for 10 days. The remaining group was administered with 2% gum arabic aqueous solution, the dose and way of administration being identical to those disclosed above. The increase in body weight of the rats of each group was observed every day during the administration. The results are shown in the graph of FIG. 1."}, "[7]": {"system": "Serum Lipid", "assay": "Hypolipidemic activity: change in level of serum lipid, 30 days, high-fat feed", "assay_type": "in vivo, Wister strain rats", "settings": "rat"}, "[8]": {"settings": "Japanese Patent No. 585,252 and U.S. Pat. No. 3,546,073; cited from earlier work"}, "[9]": {"settings": "especially noticeable when continuously administered; cited from earlier work"}, "[10]": {"assay": "Toxicity by continuous administration for 30 days (body weight, deaths)", "assay_type": "in vivo, Wister strain male rats", "settings": "rat, 50 mg/kg oral once a day", "protocol": "Wister strain male rats weighing 150 ± 20 g were divided into groups of 10 members each, and each group was orally administered with 4-O-methylascochlorin as a suspension in 2% gum arabic aqueous solution in a predetermined dose once a day for 30 days, and the increase in body weight thereof was observed each day that the administration continued. As controls, ascochlorin (50 mg/kg/day) and ethyl-α-(p-chlorophenoxy) isobutylate (500 mg/kg/day) were used. The results are shown in the graph in FIG. 2."}, "[11]": {"system": "Cholesterol in serum", "assay": "Serum cholesterol lowering activity in rats on high-fat feed, single oral dose", "assay_type": "in vivo, Wister-Imamich strain male rats", "settings": "rat, 75 mg/kg oral, 6 hours after administration", "source_text": "The cholesterol lowering activity of the ascochlorin derivatives of this invention was observed by the use of Wister-Imamich strain male rats weighing 230 ± 30 g which had been bred with the use of high-fat feed comprising 1000 g of powdery chow CLEA CE-2 (sold by NIHON CLEA KABUSHIKI KAISHA) admixed with 10 g of cholesterol, 95 g of hydrogenated coconut oil, 2 g of cholic acid, 150 g of milk casein and 671 g of sucrose.\nThe rats were divided into groups of five members each, and orally administered with a different ascochlorin derivative as a suspension in gum arabic aqueous solution in a dose of 75 mg/kg.body weight. The rats were kept from eating food, and 6 hours after the administration, the blood of each rat was sampled from its heart. The total amount of cholesterol in serum was determined by a modified Zurkowski method (Clinical Chemistry, 10, 451, 1964) with the use of a colorimeter for blood analysis (sold by KYOTO DAIICHI KAGAKU)."}, "[12]": {"settings": "10.0 mg/kg oral, average ± standard error"}}, "note": "“Also recorded” adds a separate entry of the source.", "data": [{"smiles": "CC(/C=C/[C@@]1(C)[C@H](C)CCC(=O)[C@@H]1C)=C\\Cc1c(O)c(Cl)c(C)c(C=O)c1O", "note": "[ascochlorin, reference compound]", "values": [{"measurement": "LD50", "setting": "[1]; ip", "result": 258, "unit": "mg/kg"}, {"measurement": "LD50", "setting": "[1]; oral", "result": "> 7000", "unit": "mg/kg"}, {"measurement": "LD50", "setting": "[2]; ip, female", "result": 68, "unit": "mg/kg"}, {"measurement": "LD50", "setting": "[2]; ip, male", "result": 102, "unit": "mg/kg"}, {"measurement": "LD50", "setting": "[2]; po, female", "result": "> 5000", "unit": "mg/kg"}, {"measurement": "LD50", "setting": "[2]; po, male", "result": "> 5000", "unit": "mg/kg"}, {"measurement": "hypolipidemic activity", "setting": "[3]", "result": "inadequate in its hypolipidemic activity"}, {"measurement": "Cholesterol in Liver, increasing or reducing ratio based on the control", "setting": "[4]", "result": "+6.5"}, {"measurement": "Cholesterol in Tunica intima of aorta abdominalis, increasing or reducing ratio based on the control", "setting": "[4]", "result": -4.0}, {"measurement": "Phospholipid in Liver, increasing or reducing ratio based on the control", "setting": "[4]", "result": -1.0}, {"measurement": "Triglyceride in Liver, increasing or reducing ratio based on the control", "setting": "[4]", "result": -7.3}, {"measurement": "Cholesterol in Liver", "setting": "[4]; average ± standard error", "result": "36.2 ± 3.5", "unit": "mg/g"}, {"measurement": "Phospholipid in Liver", "setting": "[4]; average ± standard error", "result": "69.5 ± 4.2", "unit": "mg/g"}, {"measurement": "Triglyceride in Liver", "setting": "[4]; average ± standard error", "result": "20.2 ± 2.5", "unit": "mg/g"}, {"measurement": "Aggregation Inhibition Ratio", "setting": "[5]", "result": 66.8, "unit": "%"}, {"measurement": "increase in body weight", "setting": "[6]", "result": "increased only slightly in body weight"}, {"measurement": "Serum Cholesterol, increasing or reducing ratio based on the control", "setting": "[7]; 10.0 mg/kg oral", "result": -8.8}, {"measurement": "Serum Free fatty acid, increasing or reducing ratio based on the control", "setting": "[7]; 10.0 mg/kg oral", "result": -4.0}, {"measurement": "Serum Phospholipid, increasing or reducing ratio based on the control", "setting": "[7]; 10.0 mg/kg oral", "result": -4.5}, {"measurement": "Serum Triglyceride, increasing or reducing ratio based on the control", "setting": "[7]; 10.0 mg/kg oral", "result": -10.0}, {"measurement": "Serum β-Lipoprotein, increasing or reducing ratio based on the control", "setting": "[7]; 10.0 mg/kg oral", "result": -5.6}, {"measurement": "Serum Cholesterol", "setting": "[7]; [12]", "result": "97.4 ± 4.8", "unit": "mg/dL"}, {"measurement": "Serum Free fatty acid", "setting": "[7]; [12]", "result": "48.3±4.7", "unit": "μ eq./dl"}, {"measurement": "Serum Phospholipid", "setting": "[7]; [12]", "result": "130.1 ± 8.4", "unit": "mg/dL"}, {"measurement": "Serum Triglyceride", "setting": "[7]; [12]", "result": "72.0 ± 13.2", "unit": "mg/dL"}, {"measurement": "Serum β-Lipoprotein", "setting": "[7]; [12]", "result": "720 ± 114", "unit": "mg/dL"}, {"measurement": "lowering of lipids in serum, liver and aorta (such effects)", "setting": "[7]; oral, groups of Tables IV and V", "result": "such effects were not observed"}, {"measurement": "known activities", "setting": "[8]", "result": "anti-viral, anti-tumor, anti-bacterial and sedative activities and, further, cholesterol-lowering activity"}, {"measurement": "toxicity", "setting": "[9]", "result": "strong in toxicity"}, {"measurement": "increase in body weight", "setting": "[10]; 50 mg/kg", "result": "little or no increase in body weight; also recorded: lost weight"}, {"measurement": "rats died during the test period", "setting": "[10]; group of 10", "result": "three"}, {"measurement": "Cholesterol in serum", "setting": "[11]", "result": 101.3, "unit": "mg/dL"}]}]}
